pIC50: −log10 of the molar value. Counter-ions that a name gives are not always drawn.

The first assay deals with cultured human mast cells (CHMC). Put plainly: CHMC low cell density IgE activation: tryptase assay. Type of assay: cell-based. Conditions: anti-IgE. The method, then: Pellet CHMC cells (980 rpm, 10 min) and resuspend in pre-warmed MT. Add 65 ul of cells to each 96-well plate. Depending on the degranulation activity for each particular CHMC donor, load 1000-1500 cells/well. Mix four times followed by a 1 hr incubation at 37° C. […] Stimulate cells by adding 25 ul of 6× anti-IgE solution to the appropriate plates. Add 25 ul MT to un-stimulated control wells. Mix twice following addition of the anti-IgE. Incubate at 37° C. for 30 minutes. […] Spin plates at 1000 rpm for 10 min to pellet cells. Transfer 25 ul of supernatant to a 96-well black bottom plate and add 100 ul of freshly diluted tryptase substrate solution to each well. Incubate plates at room temperature for 30 min.
Consider `CC(=O)N(C(C)=O)c1cccc(N(C(C)=O)c2ncc(F)c(N(C(C)=O)c3cccc(N(C(C)=O)C(C)=O)c3)n2)c1` [R950247, N2,N4-Bis(3-N,N-diacetylaminophenyl)-5-fluoro-N2,N4-pyrimidinediacetylamine], for which the negative-log IC50 (pIC50) was less than 5.00.

Take `CNC(=O)COc1cccc(Nc2ncc(F)c(Nc3ccc4c(c3)C(=O)CCO4)n2)c1` [R950345, N4-(2,3-Dihydro-4-benzypyranon-6-yl)-5-fluoro-N2-[3-(N-methylamino)carbonylmethyleneoxyphenyl]-2,4-pyrimidinediamine]: the negative logarithm of the IC50 (pIC50) was 5.71. Consider `CNC(=O)COc1cccc(Nc2ncc(F)c(Nc3ccc4c(c3)C(=NO)CCO4)n2)c1` [R950348, N4-(2,3-Dihydro-4-oxime-benzypyran-6-yl)-5-fluoro-N2-[3-(N-methylamino)carbonylmethyleneoxyphenyl]-2,4-pyrimidinediamine], for which the negative logarithm of the IC50 (pIC50) was 7.18. Turning to `CNC(=O)COc1cccc(Nc2ncc(F)c(Nc3ccc(OC)c(CO)c3)n2)c1` [R950386, N4-(3-Hydroxymethylen-4-methoxyphenyl)-5-fluoro-N2-[3-(N-methylamino)carbonylmethyleneoxyphenyl]-2,4-pyrimidinediamine], the negative logarithm of the IC50 (pIC50) is 6.01. `CCOc1ccc(Nc2nc(Nc3cccc(OCC(=O)NC)c3)ncc2F)cc1N` [R950388, N4-(3-Amino-4-ethoxyphenyl)-5-fluoro-N2-[3-(N-methylamino)carbonylmethyleneoxyphenyl]-2,4-pyrimidinediamine] gave a pIC50 of 5.60. “N2-(N-Ethylcarbonylmethyleneoxy-1,4-benzoxazin-6-yl)-5-fluoro-N2-[3-hydroxyphenyl)phenyl]pyrimidinediamine [R908734]” gave a negative-log IC50 (pIC50) of 5.86. In the case of “N4-(1,4-Benzoxazin-7-yl)-5-fluoro-N2-(3-hydroxyphenyl)-pyrimidinediamine [R908711]”, the pIC50 was 5.75. “N4-[3-(2-(N4-(3-aminomethylenephenyl)-5-fluoro-4-pyrimidineamine)-N-methylaminomethylene)-phenyl]-5-fluoro-N2-[3-(methylaminocarbonylmethyleneoxy)phenyl]-2,4-pyrimidineamine [R940311]” had a negative-log IC50 (pIC50) of 5.71.

The test system is the same in another assay. Nature of the assay: CHMC low cell density ionomycin activation: tryptase assay. Type of assay: cell-based.
Details: not given
In the case of `COC(=O)C(C)Oc1ccc(Nc2ncc(F)c(Nc3ccc(OC(C)C(=O)OC)cc3)n2)cc1` (racemic) [R926254, (±)-N2,N4-Bis[4-methoxycarbonyl(α-methyl)methyleneoxyphenyl]-5-fluoro-2,4-pyrimidinediamine], the pIC50 is 5.40. With `CNC(=O)C1Cc2cc(Nc3ncc(F)c(Nc4cccc(OC(F)(F)F)c4)n3)ccc2O1` (racemic) [R927040, (±)-N2-[2,3-Dihydro-(N-methylamino)carbonylbenzofuran-5-yl]-5-fluoro-N4-(3-trifluoromethoxyphenyl)-2,4-pyrimidinediamine], the pIC50 was less than 5.00.

`Cc1cc(Nc2nc(Cl)ncc2F)ccc1F` [Compound R926921] gave a negative-log IC50 (pIC50) of less than 5.00. Consider `Cc1ccc(Nc2nc(Cl)ncc2F)cc1CNC(=O)OC(C)(C)C` [Compound R926924], for which the negative-log IC50 (pIC50) was less than 5.00. As for `CNC(=O)COc1cccc(Nc2ncc(F)c(Nc3ccc4c(c3)N(C)CCO4)n2)c1` [R909259, 5-Fluoro-N2-[3-(N-methylaminocarbonylmethyleneoxy)phenyl]-N4-(N-methyl-1,4-benzoxazin-6-yl)pyrimidinediamine], the pIC50 was less than 5.00. Compound `CNC(=O)COc1cccc(Nc2ncc(F)c(Nc3ccc4c(c3)NCCO4)n2)c1` [R920395, N4-(1,4-Benzoxazin-6-yl)-5-fluoro-N2-[3-(N-methylamino)carbonylmethyleneoxyphenyl]-2,4-pyrimidinediamine Hydrogen Chloride Salt] showed a negative logarithm of the IC50 (pIC50) of less than 5.00. Same read-out and setting: with `Oc1cccc(Nc2ncc(F)c(Nc3ccc4c(c3)OCCO4)n2)c1` [R925796, N4-(3,4-Ethylenedioxyphenyl)-5-fluoro-N2-(3-hydroxyphenyl)-2,4-pyrimidinediamine] the figure was less than 5.00. Compound `Oc1cccc(Nc2ncc(F)c(Nc3cccc(O)c3)n2)c1` [R926461, N2,N4-Bis(3-sodiumphenoxy)-5-fluoro-2,4-pyrimidinediamine] gave a pIC50 of less than 5.00.

A word on the pIC50: it is the IC50 on a negative log10 scale, so that one unit is a factor of ten. Read a high pIC50 as a small IC50.
